From ChEMBL document CHEMBL5303764, “Data for DCP probe BI-3812” (2023)
pKi: −log10 of the molar value. Calls of active or inactive are those of the source. No cut-off for these calls is given here.

What was measured:
[1] = molecular target: MAO-A (amine oxidase [flavin-containing] A) (Rattus norvegicus, UniProt P21396); assay: MAO-A_ANTAG Eurofins SafetyScreen44 (BI); design: scale not given: the % may be the effect or the level left; conditions: compound concentration 10 uM, read-out: % Ctrl
[2] = molecular target: Prostaglandin G/H synthase 1 (Homo sapiens) (UniProt P23219); assay: COX-1 Eurofins SafetyScreen44 (BI); conditions: Compound concentration 10.0 uM
[3] = molecular target: T1, B-cell lymphoma 6 protein (Homo sapiens, UniProt P41182); assay: BCL6::NCOR LUMIER in cells
[4] = molecular target: Beta-2 adrenergic receptor (Homo sapiens) (UniProt P07550); conditions: Compound concentration 10.0 uM
Chain of Beta-2 adrenergic receptor (Homo sapiens) (P07550 whole entry, looked up): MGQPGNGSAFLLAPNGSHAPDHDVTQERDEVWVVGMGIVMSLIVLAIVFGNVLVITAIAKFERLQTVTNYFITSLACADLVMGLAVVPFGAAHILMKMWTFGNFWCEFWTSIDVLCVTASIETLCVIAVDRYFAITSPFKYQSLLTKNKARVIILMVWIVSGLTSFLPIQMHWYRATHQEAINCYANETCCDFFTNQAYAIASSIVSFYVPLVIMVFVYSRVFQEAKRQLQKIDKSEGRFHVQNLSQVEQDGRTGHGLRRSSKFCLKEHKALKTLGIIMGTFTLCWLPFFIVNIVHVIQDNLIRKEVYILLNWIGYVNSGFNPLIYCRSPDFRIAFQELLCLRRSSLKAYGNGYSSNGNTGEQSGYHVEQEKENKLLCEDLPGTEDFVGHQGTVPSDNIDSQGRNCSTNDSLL

[5] = molecular target: Myosin light chain kinase 2, skeletal/cardiac muscle (Homo sapiens) (UniProt Q9H1R3); assay: MYLK2 Invitrogen Lab (UK) kinase screen (BI); conditions: Compound concentration 1.0 uM
[6] = molecular target: Serine/threonine-protein kinase 3 (Homo sapiens) (UniProt Q13188); assay: STK3 Invitrogen Lab (UK) kinase screen (BI); conditions: Compound concentration 1.0 uM
Chain of Serine/threonine-protein kinase 3 (Homo sapiens) (Q13188 whole entry): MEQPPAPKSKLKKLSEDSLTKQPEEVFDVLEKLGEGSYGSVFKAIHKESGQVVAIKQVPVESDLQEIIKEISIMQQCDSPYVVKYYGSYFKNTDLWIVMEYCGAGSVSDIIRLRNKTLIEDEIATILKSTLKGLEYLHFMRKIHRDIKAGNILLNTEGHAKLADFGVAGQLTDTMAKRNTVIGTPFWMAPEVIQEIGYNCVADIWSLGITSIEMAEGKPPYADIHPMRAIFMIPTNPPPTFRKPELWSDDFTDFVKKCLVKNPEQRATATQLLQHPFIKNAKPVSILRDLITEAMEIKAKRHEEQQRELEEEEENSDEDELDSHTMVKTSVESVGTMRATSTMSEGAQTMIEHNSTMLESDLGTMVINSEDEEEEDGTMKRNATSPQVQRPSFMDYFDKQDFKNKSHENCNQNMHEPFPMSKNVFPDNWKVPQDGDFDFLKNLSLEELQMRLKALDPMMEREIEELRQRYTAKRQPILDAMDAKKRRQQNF

[7] = molecular target: D(2) dopamine receptor (Homo sapiens) (UniProt P14416); assay: D2SH_AGON Eurofins SafetyScreen44 (BI); conditions: filed as agonist, Compound concentration 10.0 uM
[8] = molecular target: Sigma intracellular receptor 2 (Homo sapiens) (UniProt Q5BJF2); conditions: Compound concentration 10.0 uM
Chain of Sigma intracellular receptor 2 (Homo sapiens) (Q5BJF2 whole entry): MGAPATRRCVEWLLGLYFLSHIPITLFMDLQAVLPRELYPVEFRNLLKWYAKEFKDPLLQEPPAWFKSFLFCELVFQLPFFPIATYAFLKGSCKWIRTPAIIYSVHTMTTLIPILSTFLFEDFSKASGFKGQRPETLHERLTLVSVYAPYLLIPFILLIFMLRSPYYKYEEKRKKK

[9] = molecular target: Beta-1 adrenergic receptor (Homo sapiens) (UniProt P08588); assay: BETA1/HUM Eurofins SafetyScreen44 (BI); conditions: Compound concentration 10.0 uM
Chain of Beta-1 adrenergic receptor (Homo sapiens) (P08588 whole entry, looked up): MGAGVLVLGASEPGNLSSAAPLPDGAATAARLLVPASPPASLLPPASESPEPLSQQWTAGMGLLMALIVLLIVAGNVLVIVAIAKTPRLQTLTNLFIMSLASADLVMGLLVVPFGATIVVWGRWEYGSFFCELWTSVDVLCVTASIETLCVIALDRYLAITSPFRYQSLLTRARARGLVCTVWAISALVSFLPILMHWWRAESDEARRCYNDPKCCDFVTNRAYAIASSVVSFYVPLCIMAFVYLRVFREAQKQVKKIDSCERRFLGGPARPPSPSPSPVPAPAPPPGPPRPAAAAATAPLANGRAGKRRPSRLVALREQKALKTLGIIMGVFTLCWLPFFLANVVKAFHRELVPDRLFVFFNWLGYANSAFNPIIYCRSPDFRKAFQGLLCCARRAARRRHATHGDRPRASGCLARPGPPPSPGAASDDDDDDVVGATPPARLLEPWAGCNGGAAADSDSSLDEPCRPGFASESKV

[10] = molecular target: Muscarinic acetylcholine receptor M4 (Homo sapiens, UniProt P08173); assay: GPCRScan assay: inhibition of M4; design: radioligand conc. used [nm] 0.3 – 1.0, parental cells stable CHO
Chain of Muscarinic acetylcholine receptor M4 (P08173 whole entry): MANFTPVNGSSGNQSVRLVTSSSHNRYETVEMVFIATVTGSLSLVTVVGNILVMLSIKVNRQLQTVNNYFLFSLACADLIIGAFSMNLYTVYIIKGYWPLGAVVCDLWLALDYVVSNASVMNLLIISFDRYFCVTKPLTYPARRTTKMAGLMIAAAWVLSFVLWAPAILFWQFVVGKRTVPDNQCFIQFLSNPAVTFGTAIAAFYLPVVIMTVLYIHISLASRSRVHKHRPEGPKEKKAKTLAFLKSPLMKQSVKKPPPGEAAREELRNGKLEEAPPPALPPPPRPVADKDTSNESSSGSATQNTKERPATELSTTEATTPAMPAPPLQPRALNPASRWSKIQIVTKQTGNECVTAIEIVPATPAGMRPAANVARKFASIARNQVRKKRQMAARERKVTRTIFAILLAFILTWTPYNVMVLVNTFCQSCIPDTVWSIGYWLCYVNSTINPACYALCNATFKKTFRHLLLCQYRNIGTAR

[11] = molecular target: RAC-beta serine/threonine-protein kinase (Homo sapiens) (UniProt P31751); assay: AKT2 Invitrogen Lab (UK) kinase screen (BI); conditions: Compound concentration 1.0 uM
[12] = molecular target: Prostaglandin G/H synthase 2 (Homo sapiens) (UniProt P35354); assay: COX-2 Eurofins SafetyScreen44 (BI); conditions: Compound concentration 10.0 uM
[13] = molecular target: AMP-activated protein kinase (AMPK) alpha-1/beta-1/gamma-1 (Homo sapiens) (UniProt P54619+Q9Y478+Q13131); assay: AMPK A1B1G1 Invitrogen Lab (UK) kinase screen (BI); type: protein-complex assay; conditions: Compound concentration 1.0 uM
[14] = molecular target: Tyrosine-protein kinase ABL1 (Homo sapiens) (UniProt P00519); assay: ABL1 Invitrogen Lab (UK) kinase screen (BI); conditions: Compound concentration 1.0 uM
Chain of Tyrosine-protein kinase ABL1 (Homo sapiens) (P00519 whole entry): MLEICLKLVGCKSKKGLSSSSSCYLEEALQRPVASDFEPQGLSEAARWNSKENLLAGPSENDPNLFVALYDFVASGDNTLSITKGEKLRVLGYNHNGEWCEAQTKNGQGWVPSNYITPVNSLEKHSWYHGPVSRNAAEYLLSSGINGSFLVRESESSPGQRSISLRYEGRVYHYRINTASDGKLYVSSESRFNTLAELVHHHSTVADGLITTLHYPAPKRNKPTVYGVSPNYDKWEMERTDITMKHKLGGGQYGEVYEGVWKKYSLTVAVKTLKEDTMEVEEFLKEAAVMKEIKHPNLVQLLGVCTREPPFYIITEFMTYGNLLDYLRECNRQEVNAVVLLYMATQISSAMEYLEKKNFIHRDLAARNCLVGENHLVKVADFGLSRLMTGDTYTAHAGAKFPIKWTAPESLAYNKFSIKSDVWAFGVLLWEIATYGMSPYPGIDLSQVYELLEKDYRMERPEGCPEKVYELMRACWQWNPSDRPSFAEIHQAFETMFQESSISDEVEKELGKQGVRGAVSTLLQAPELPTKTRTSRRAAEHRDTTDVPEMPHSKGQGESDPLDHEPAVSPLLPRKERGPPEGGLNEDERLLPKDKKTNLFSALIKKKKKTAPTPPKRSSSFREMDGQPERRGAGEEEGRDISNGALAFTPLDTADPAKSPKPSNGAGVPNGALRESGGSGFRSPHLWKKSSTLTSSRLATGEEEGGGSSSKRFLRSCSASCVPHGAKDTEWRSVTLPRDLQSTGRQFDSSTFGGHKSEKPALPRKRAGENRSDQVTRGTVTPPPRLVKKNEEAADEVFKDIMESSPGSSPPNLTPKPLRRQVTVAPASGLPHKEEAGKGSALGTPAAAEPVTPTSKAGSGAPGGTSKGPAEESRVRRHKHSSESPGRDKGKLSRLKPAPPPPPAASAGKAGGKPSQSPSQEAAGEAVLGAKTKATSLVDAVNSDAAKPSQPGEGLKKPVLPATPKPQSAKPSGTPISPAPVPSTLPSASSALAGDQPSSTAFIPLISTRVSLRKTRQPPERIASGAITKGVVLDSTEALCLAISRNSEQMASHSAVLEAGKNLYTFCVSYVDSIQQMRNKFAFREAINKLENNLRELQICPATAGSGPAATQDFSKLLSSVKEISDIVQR

[15] = molecular target: 5-hydroxytryptamine receptor 3A (Homo sapiens) (UniProt P46098); assay: 5HT3/H Eurofins SafetyScreen44 (BI); conditions: Compound concentration 10.0 uM
[16] = molecular target: Serine/threonine-protein kinase Nek1 (Homo sapiens) (UniProt Q96PY6); assay: NEK1 Invitrogen Lab (UK) kinase screen (BI); conditions: Compound concentration 1.0 uM
[17] = molecular target: Leucine-rich repeat serine/threonine-protein kinase 2 (Homo sapiens) (UniProt Q5S007); assay: LRRK2 Invitrogen Lab (UK) kinase screen (BI); conditions: Compound concentration 1.0 uM
[18] = molecular target: Adenosine receptor A2a (Homo sapiens) (UniProt P29274); assay: A2A/H Eurofins SafetyScreen44 (BI); conditions: filed as antagonist, Compound concentration 10.0 uM
[19] = molecular target: Zinc finger and BTB domain-containing protein 17 (Homo sapiens, UniProt Q13105); assay: SPR (ZBTB17), Ontario institute for cancer research
[20] = molecular target: Histamine H1 receptor (Homo sapiens) (UniProt P35367); assay: H1/PYRIL/HS Eurofins SafetyScreen44 (BI); conditions: Compound concentration 10.0 uM
[21] = molecular target: L-type Ca2+ channel (dihydropyridine site), Cav1.2 alpha-1C (Rattus norvegicus, UniProt P22002); assay: CA+/DHPSI/R Eurofins SafetyScreen44 (BI); conditions: rat brain, probe [3H](+)PN200-110, compound concentration 10 uM, read-out: % Ctrl
[22] = molecular target: Beta-1 adrenergic receptor (Homo sapiens) (UniProt P08588); conditions: Compound concentration 10.0 uM
[23] = molecular target: Serine/threonine-protein kinase PAK 4 (Homo sapiens) (UniProt O96013); assay: PAK4 Invitrogen Lab (UK) kinase screen (BI); conditions: Compound concentration 1.0 uM
[24] = molecular target: Androgen receptor (Homo sapiens) (UniProt P10275); assay: ANDROGEN/H Eurofins SafetyScreen44 (BI); conditions: Compound concentration 10.0 uM
[25] = molecular target: 5-hydroxytryptamine receptor 1A (Homo sapiens) (UniProt P08908); conditions: Compound concentration 10.0 uM
Chain of 5-hydroxytryptamine receptor 1A (Homo sapiens) (P08908 whole entry): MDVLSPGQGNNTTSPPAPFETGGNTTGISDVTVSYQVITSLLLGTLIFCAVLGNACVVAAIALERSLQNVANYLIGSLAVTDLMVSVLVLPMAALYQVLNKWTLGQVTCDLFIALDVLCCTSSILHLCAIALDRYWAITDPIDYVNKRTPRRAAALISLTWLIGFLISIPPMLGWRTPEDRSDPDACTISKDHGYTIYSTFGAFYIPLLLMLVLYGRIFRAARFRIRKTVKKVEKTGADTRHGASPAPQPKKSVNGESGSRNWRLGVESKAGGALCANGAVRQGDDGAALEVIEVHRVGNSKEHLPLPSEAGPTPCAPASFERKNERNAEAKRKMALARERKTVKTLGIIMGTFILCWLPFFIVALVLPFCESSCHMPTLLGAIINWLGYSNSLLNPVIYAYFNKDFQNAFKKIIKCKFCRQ

[26] = molecular target: Proto-oncogene tyrosine-protein kinase Src (Homo sapiens) (UniProt P12931); assay: SRC Invitrogen Lab (UK) kinase screen (BI); conditions: Compound concentration 1.0 uM
[27] = molecular target: 5-hydroxytryptamine receptor 7 (Homo sapiens) (UniProt P34969); conditions: Compound concentration 10.0 uM
Chain of 5-hydroxytryptamine receptor 7 (Homo sapiens) (P34969 whole entry): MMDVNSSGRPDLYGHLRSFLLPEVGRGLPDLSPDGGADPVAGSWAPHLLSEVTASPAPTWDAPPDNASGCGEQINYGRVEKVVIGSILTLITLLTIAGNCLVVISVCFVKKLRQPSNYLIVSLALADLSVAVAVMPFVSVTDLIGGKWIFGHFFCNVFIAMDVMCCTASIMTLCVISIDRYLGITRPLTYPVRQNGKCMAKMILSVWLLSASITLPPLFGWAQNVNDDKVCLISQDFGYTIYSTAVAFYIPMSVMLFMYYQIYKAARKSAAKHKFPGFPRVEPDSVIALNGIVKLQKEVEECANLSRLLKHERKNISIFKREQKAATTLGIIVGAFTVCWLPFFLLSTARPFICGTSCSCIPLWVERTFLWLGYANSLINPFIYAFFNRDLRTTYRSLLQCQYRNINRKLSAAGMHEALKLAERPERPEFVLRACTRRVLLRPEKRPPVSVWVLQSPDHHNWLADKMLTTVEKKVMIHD

[28] = molecular target: Sodium-dependent noradrenaline transporter (Homo sapiens) (UniProt P23975); assay: NEUP/H Eurofins SafetyScreen44 (BI); conditions: Compound concentration 10.0 uM
[29] = molecular target: Beta-3 adrenergic receptor (Homo sapiens) (UniProt P13945); conditions: Compound concentration 10.0 uM
Chain of Beta-3 adrenergic receptor (Homo sapiens) (P13945 whole entry, looked up): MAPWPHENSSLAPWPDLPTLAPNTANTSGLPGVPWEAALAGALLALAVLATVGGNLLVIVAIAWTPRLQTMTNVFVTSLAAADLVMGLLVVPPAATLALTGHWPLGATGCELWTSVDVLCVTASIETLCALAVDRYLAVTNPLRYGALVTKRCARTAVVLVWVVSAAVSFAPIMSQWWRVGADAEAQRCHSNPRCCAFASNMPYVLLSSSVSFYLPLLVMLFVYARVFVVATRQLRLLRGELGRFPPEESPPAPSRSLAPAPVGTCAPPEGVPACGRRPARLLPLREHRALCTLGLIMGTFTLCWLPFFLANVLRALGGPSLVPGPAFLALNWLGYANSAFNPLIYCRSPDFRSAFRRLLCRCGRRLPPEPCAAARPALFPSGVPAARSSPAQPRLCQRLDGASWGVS

[30] = molecular target: cAMP-dependent protein kinase catalytic subunit alpha (Homo sapiens) (UniProt P17612); assay: PRKACA Invitrogen Lab (UK) kinase screen (BI); conditions: Compound concentration 1.0 uM
[31] = molecular target: Delta-type opioid receptor (Homo sapiens) (UniProt P41143); assay: DELTA2/H Eurofins SafetyScreen44 (BI); conditions: Compound concentration 10.0 uM
[32] = molecular target: Glutamate NMDA receptor (Rattus norvegicus) (UniProt P35439+Q00959+Q00960+Q00961+Q62645+Q8VHN2+Q9R1M7); assay: NMDA/R Eurofins SafetyScreen44 (BI); type: protein-complex assay; conditions: Compound concentration 10.0 uM
[33] = molecular target: 5-hydroxytryptamine receptor 2C (Homo sapiens) (UniProt P28335); conditions: Compound concentration 10.0 uM
Chain of 5-hydroxytryptamine receptor 2C (Homo sapiens) (P28335 whole entry): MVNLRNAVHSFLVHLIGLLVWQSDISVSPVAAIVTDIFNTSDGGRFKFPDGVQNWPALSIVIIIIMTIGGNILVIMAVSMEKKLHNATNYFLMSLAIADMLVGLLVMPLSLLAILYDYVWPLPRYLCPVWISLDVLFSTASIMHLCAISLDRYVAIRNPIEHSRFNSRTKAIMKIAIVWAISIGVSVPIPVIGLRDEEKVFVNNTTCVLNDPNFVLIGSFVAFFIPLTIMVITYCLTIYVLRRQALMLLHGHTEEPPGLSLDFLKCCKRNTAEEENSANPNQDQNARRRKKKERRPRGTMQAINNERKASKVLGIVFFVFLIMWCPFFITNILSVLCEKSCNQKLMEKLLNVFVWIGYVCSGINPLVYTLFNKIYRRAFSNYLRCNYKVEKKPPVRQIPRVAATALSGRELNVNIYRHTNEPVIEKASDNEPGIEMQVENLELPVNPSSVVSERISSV

[34] = molecular target: Ribosomal protein S6 kinase alpha-5 (Homo sapiens) (UniProt O75582); assay: RPS6KA5 Invitrogen Lab (UK) kinase screen (BI); conditions: Compound concentration 1.0 uM
[35] = molecular target: T1, B-cell lymphoma 6 protein; assay: BCL6:BCOR ULight TR-FRET
[36] = molecular target: Dual specificity mitogen-activated protein kinase kinase 2 (Homo sapiens) (UniProt P36507); assay: MAP2K2 Invitrogen Lab (UK) kinase screen (BI); conditions: Compound concentration 1.0 uM
[37] = molecular target: cGMP-inhibited 3',5'-cyclic phosphodiesterase 3A (Homo sapiens) (UniProt Q14432); assay: PDE3A Eurofins SafetyScreen44 (BI); conditions: Compound concentration 10.0 uM
[38] = molecular target: Protein kinase C alpha type (Homo sapiens) (UniProt P17252); assay: PRKCA Invitrogen Lab (UK) kinase screen (BI); conditions: Compound concentration 1.0 uM
[39] = molecular target: Mitogen-activated protein kinase 14 (Homo sapiens) (UniProt Q16539); assay: MAPK14 Invitrogen Lab (UK) kinase screen (BI); conditions: Compound concentration 1.0 uM
[40] = molecular target: Zinc finger and BTB domain-containing protein 32 (Homo sapiens, UniProt Q9Y2Y4); assay: SPR (ZBTB32), Ontario institute for cancer research
[41] = molecular target: Sodium-dependent dopamine transporter (Homo sapiens) (UniProt Q01959); assay: DATRANS/HUM Eurofins SafetyScreen44 (BI); conditions: Compound concentration 10.0 uM
[42] = molecular target: Aurora kinase B (Homo sapiens) (UniProt Q96GD4); assay: AURKB Invitrogen Lab (UK) kinase screen (BI); conditions: Compound concentration 1.0 uM

CNC(=O)COc1cc2cc(Nc3nc(N4CCC(C(=O)N(C)C)CC4)ncc3Cl)cc(OC)c2n(C)c1=O
activity at 10 µM [1]: 103% (not active) | residual activity [2]: 118% | IC50 [3]: 40 nM (active) | inhibition [4]: 1.38% | residual activity [5]: 101% | residual activity [6]: 100% | residual activity [7]: 101% | inhibition [8]: 38.2% | residual activity [9]: 100% | pKi ([10]; read-out: Ki): 6.06 | Ki ([10]; read-out: pKi (converted)): 851 nM | residual activity [11]: 90% | residual activity [12]: 74% | residual activity [13]: 98% | residual activity [14]: 93% | residual activity [15]: 95% | residual activity [16]: 98% | residual activity [17]: 111% | residual activity [18]: 86% | Kd [19]: No binding | residual activity [20]: 97% | activity at 10 µM [21]: 95% (not active) | inhibition [22]: -5.19% | residual activity [23]: 82% | residual activity [24]: 99% | inhibition [25]: 22.9% | residual activity [26]: 88% | inhibition [27]: 18.2% | residual activity [28]: 99% | inhibition [29]: 4.51% | residual activity [30]: 99% | residual activity [31]: 85% | residual activity [32]: 104% | inhibition [33]: -2.05% | residual activity [34]: 103% | IC50 [35]: ≤ 3 nM (active) | residual activity [36]: 95% | residual activity [37]: 142% | residual activity [38]: 90% | residual activity [39]: 88% | Kd [40]: No binding | residual activity [41]: 101% | residual activity [42]: 89%
